Data published in ChEMBL document CHEMBL1909046, “DrugMatrix in vitro pharmacology data”.

Legend:
[1] = biological target: 5-hydroxytryptamine receptor 4 (Cavia porcellus, UniProt O70528); assay type: cell membranes, Dunkin-Hartley, Striatum, Membrane; also: in other assays of this panel Not Active means under 50% inhibition at 10 µM
[2] = biological target: Nitric oxide synthase 1 (Rattus norvegicus, UniProt P29476); assay type: tissue-based, Cerebellum; also: in other assays of this panel Not Active means under 50% inhibition at 10 µM
Chain of Nitric oxide synthase 1 (P29476 whole entry): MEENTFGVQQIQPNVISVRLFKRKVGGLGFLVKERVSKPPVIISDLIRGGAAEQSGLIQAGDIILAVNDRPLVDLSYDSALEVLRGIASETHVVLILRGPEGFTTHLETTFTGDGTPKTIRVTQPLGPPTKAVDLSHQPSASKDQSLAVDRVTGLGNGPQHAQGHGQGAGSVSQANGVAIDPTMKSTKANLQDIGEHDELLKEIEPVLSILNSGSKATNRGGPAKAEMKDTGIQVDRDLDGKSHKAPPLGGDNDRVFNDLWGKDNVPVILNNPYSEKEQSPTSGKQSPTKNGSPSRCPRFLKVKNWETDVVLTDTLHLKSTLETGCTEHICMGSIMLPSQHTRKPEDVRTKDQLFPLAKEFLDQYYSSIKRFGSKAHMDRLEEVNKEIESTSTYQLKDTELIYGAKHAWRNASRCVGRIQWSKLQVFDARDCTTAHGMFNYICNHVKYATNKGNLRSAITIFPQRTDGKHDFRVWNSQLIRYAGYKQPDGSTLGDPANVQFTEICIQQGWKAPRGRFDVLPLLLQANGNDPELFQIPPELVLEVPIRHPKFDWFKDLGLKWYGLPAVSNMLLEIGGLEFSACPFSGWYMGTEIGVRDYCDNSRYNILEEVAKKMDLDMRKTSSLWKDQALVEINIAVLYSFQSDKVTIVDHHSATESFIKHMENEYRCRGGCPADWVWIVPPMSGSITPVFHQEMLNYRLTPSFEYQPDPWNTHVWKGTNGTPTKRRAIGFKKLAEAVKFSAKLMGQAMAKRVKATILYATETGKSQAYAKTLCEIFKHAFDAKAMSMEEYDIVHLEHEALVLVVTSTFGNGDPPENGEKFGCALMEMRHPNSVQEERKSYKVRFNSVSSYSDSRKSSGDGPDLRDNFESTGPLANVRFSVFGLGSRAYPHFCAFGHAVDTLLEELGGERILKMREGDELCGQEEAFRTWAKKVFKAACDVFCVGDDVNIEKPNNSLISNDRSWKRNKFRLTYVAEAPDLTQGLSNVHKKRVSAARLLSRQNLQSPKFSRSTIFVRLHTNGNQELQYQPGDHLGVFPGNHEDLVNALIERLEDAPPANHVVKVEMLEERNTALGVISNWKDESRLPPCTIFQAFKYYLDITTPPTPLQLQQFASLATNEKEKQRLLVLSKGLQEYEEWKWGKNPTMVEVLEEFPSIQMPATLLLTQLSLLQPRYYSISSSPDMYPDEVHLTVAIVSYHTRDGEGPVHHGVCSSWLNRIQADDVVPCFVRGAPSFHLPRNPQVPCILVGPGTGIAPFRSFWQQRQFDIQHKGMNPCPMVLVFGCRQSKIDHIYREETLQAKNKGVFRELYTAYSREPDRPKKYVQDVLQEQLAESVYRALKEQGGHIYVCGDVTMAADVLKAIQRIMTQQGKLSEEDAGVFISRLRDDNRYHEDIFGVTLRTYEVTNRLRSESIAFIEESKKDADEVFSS

[3] = biological target: T1, C-C chemokine receptor type 4 (Homo sapiens, UniProt P51679); assay type: cell membranes, Membrane; conditions: chem-1; also: in other assays of this panel Not Active means under 50% inhibition at 10 µM
T1 sequence (P51679 whole entry): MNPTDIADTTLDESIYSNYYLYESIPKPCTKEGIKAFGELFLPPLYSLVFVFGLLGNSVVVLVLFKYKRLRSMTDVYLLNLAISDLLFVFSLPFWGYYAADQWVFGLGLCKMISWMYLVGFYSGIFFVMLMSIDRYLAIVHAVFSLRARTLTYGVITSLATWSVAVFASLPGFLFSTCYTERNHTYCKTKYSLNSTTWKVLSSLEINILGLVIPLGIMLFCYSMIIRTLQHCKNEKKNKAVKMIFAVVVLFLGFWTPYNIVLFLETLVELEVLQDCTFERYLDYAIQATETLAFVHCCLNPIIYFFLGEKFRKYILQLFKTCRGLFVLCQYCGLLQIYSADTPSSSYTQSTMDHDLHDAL

[4] = DRUGMATRIX: Glutamate, NMDA, Phencyclidine radioligand binding (ligand: [3H] TCP); assay type: cell membranes, Rattus norvegicus, Wistar, Cerebral cortex, Membrane; conditions: Not Active = under 50% inhibition at 10 µM
[5] = DRUGMATRIX: Phosphodiesterase PDE3 enzyme inhibition (substrate: [3H]cAMP + cAMP); assay type: tissue-based, Homo sapiens; conditions: platelet; Not Active = under 50% inhibition at 10 µM
[6] = biological target: Vascular endothelial growth factor receptor 1 (Homo sapiens, UniProt P17948); assay type: cell-based; conditions: huvec; also: in other assays of this panel Not Active means under 50% inhibition at 10 µM
Chain of Vascular endothelial growth factor receptor 1 (P17948 whole entry): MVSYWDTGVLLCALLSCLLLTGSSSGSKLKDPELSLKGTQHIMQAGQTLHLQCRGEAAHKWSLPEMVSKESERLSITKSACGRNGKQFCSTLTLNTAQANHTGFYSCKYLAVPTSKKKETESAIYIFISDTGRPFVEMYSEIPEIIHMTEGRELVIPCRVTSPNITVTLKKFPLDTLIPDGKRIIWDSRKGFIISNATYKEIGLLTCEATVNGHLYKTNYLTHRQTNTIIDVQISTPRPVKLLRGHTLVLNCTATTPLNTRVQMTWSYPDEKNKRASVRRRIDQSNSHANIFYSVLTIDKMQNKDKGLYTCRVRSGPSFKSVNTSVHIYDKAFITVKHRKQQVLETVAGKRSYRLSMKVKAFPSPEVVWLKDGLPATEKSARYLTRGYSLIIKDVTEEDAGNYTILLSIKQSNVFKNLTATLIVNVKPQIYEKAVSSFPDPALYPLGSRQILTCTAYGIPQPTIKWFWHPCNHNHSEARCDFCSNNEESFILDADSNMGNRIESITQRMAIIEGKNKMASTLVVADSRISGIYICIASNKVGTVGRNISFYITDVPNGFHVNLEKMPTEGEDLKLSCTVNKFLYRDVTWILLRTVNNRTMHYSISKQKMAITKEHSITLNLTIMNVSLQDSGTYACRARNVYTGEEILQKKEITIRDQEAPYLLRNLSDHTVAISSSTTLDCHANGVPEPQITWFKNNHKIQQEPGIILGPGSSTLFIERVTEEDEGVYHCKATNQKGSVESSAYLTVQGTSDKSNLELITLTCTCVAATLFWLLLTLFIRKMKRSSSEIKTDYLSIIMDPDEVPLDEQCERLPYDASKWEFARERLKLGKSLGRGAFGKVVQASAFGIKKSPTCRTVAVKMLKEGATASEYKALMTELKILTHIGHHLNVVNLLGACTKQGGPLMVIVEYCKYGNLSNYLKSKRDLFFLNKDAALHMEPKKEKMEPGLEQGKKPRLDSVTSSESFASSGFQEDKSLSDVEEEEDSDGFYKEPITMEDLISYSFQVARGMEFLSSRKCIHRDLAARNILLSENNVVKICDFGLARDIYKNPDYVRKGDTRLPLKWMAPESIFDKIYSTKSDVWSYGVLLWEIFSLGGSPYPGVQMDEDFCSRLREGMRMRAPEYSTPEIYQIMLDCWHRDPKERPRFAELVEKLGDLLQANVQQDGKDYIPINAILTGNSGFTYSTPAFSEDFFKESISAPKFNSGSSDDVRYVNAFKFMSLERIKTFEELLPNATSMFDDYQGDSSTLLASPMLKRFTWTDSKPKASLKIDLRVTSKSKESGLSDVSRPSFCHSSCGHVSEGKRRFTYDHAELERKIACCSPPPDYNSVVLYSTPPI

[7] = DRUGMATRIX: Calcium Channel Type L, Benzothiazepine radioligand binding (ligand: [3H] Diltiazem); assay type: cell membranes, Rattus norvegicus, Wistar, Brain, Membrane; conditions: Not Active = under 50% inhibition at 10 µM

Chain of 5-hydroxytryptamine receptor 4 (O70528 whole entry): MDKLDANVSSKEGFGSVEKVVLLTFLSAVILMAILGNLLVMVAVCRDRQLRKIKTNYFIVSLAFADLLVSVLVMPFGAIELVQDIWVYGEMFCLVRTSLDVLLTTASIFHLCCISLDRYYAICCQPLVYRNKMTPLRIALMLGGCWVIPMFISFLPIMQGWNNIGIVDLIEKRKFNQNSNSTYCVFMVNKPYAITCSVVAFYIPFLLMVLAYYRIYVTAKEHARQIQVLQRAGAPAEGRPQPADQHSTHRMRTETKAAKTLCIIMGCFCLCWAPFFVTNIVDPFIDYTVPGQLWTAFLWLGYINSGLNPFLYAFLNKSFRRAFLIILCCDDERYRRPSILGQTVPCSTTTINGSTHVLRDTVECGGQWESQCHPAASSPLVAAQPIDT

SMILES	IC50 [1]	IC50 [2]	IC50 [3]	IC50 [4]	Ki [4]	IC50 [5]	Ki [5]	IC50 [6]	IC50 [7]	Ki [7]	IC50 ([7]; read-out: IC50)	Ki ([7]; read-out: Ki)
CC1(C)O[C@@H]2C[C@H]3[C@@H]4C[C@H](F)C5=CC(=O)C=C[C@]5(C)[C@@]4(F)[C@@H](O)C[C@]3(C)[C@]2(C(=O)CO)O1 [FLUOCINOLONE ACETONIDE]	Not Active	Not Active	Not Active	Not Active	Not Active	Not Active	Not Active	Not Active	Not Active	Not Active	–	–
CC1(C)O[C@@H]2C[C@H]3[C@@H]4C[C@H](F)C5=CC(=O)CC[C@]5(C)[C@H]4[C@@H](O)C[C@]3(C)[C@]2(C(=O)CO)O1 [FLURANDRENOLIDE]	Not Active	Not Active	Not Active	Not Active	Not Active	Not Active	Not Active	Not Active	Not Active	Not Active	–	–
CN(C)c1ccc(C(=C2C=CC(=[N+](C)C)C=C2)c2ccc(N(C)C)cc2)cc1.[Cl-] [GENTIAN VIOLET]	Not Active	Not Active	Not Active	Not Active	Not Active	Not Active	Not Active	Not Active	Not Active	Not Active	–	–
Cc1ccc(S(=O)(=O)NC(=O)NN2CC3CCCC3C2)cc1 (stereo not given) [GLICLAZIDE]	Not Active	Not Active	Not Active	Not Active	Not Active	Not Active	Not Active	Not Active	Not Active	Not Active	–	–
NC(=O)NO [HYDROXYUREA]	Not Active	Not Active	Not Active	Not Active	Not Active	Not Active	Not Active	Not Active	Not Active	Not Active	–	–
CC(C)Cc1ccc(C(C)C(=O)O)cc1 (stereo not given) [IBUPROFEN]	Not Active	Not Active	Not Active	Not Active	Not Active	Not Active	Not Active	Not Active	Not Active	Not Active	–	–
COc1ccc2c(c1)c(CC(=O)O)c(C)n2C(=O)c1ccc(Cl)cc1 [INDOMETHACIN]	Not Active	Not Active	Not Active	Not Active	Not Active	Not Active	Not Active	Not Active	Not Active	Not Active	–	–
CCc1c2c(nc3ccc(OC(=O)N4CCC(N5CCCCC5)CC4)cc13)-c1cc3c(c(=O)n1C2)COC(=O)[C@]3(O)CC [IRINOTECAN]	Not Active	Not Active	Not Active	Not Active	Not Active	Not Active	Not Active	Not Active	Not Active	Not Active	–	–
CC(C(=O)O)c1cccc(C(=O)c2ccccc2)c1 (stereo not given) [KETOPROFEN]	Not Active	Not Active	Not Active	Not Active	Not Active	Not Active	Not Active	Not Active	Not Active	Not Active	–	–
Nc1ccn([C@@H]2CS[C@H](CO)O2)c(=O)n1 [LAMIVUDINE]	Not Active	Not Active	Not Active	Not Active	Not Active	Not Active	Not Active	Not Active	Not Active	Not Active	–	–
O=S(=O)([O-])CCS.[Na+] [MESNA]	Not Active	Not Active	Not Active	Not Active	Not Active	Not Active	Not Active	Not Active	Not Active	Not Active	–	–
C#C[C@]1(O)CC[C@H]2[C@@H]3CCc4cc(OC)ccc4[C@H]3CC[C@@]21C [MESTRANOL]	Not Active	Not Active	Not Active	Not Active	Not Active	Not Active	Not Active	Not Active	Not Active	Not Active	–	–
CC(=O)Nc1cccc(O)c1 [METACETAMOL]	Not Active	Not Active	Not Active	Not Active	Not Active	Not Active	Not Active	Not Active	Not Active	Not Active	–	–
Cc1ncc([N+](=O)[O-])n1CCO [METRONIDAZOLE]	Not Active	Not Active	Not Active	Not Active	Not Active	Not Active	Not Active	Not Active	Not Active	Not Active	–	–
CC(C)(C(=O)c1cccnc1)c1cccnc1 [METYRAPONE]	Not Active	Not Active	Not Active	Not Active	Not Active	Not Active	Not Active	Not Active	Not Active	Not Active	–	–
Oc1ccc(OCc2ccccc2)cc1 [MONOBENZONE]	Not Active	Not Active	Not Active	Not Active	Not Active	Not Active	Not Active	Not Active	Not Active	Not Active	–	–
CC(C)(Oc1ccc(C2CCCc3ccccc32)cc1)C(=O)O (stereo not given) [NAFENOPIN]	Not Active	Not Active	Not Active	Not Active	Not Active	Not Active	Not Active	Not Active	Not Active	Not Active	–	–
CC(C)[C@H]1CC[C@H](C(=O)N[C@H](Cc2ccccc2)C(=O)O)CC1 [NATEGLINIDE]	Not Active	Not Active	Not Active	Not Active	Not Active	Not Active	Not Active	Not Active	Not Active	Not Active	–	–
CCN[C@@H]1C[C@H](N)[C@@H](O[C@H]2OC(CN)=CC[C@H]2N)[C@H](O)[C@H]1O[C@H]1OC[C@](C)(O)[C@H](NC)[C@H]1O [NETILMICIN]	Not Active	Not Active	Not Active	Not Active	Not Active	Not Active	Not Active	Not Active	Not Active	Not Active	–	–
COC(=O)C1=C(C)NC(C)=C(C(=O)OCC(C)C)C1c1ccccc1[N+](=O)[O-] (stereo not given) [NISOLDIPINE]	Not Active	Not Active	Not Active	Not Active	Not Active	Not Active	Not Active	Not Active	–	–	2.48 nM	2.21 nM
CCOC(=O)C1=C(C)NC(C)=C(C(=O)OC)C1c1cccc([N+](=O)[O-])c1 (stereo not given) [NITRENDIPINE]	Not Active	Not Active	Not Active	Not Active	Not Active	Not Active	Not Active	Not Active	–	–	1.56 nM	1.39 nM
C#C[C@]1(OC(C)=O)CC[C@H]2[C@@H]3CCC4=CC(=O)CC[C@@H]4[C@H]3CC[C@@]21C [NORETHINDRONE ACETATE]	Not Active	Not Active	Not Active	Not Active	Not Active	Not Active	Not Active	Not Active	Not Active	Not Active	–	–
COc1ccc2[nH]c([S+]([O-])Cc3ncc(C)c(OC)c3C)nc2c1 (stereo not given) [OMEPRAZOLE]	Not Active	Not Active	Not Active	Not Active	Not Active	Not Active	Not Active	Not Active	Not Active	Not Active	–	–
Cc1nccn1CC1CCc2c(c3ccccc3n2C)C1=O (stereo not given) [ONDANSETRON]	Not Active	Not Active	Not Active	Not Active	Not Active	Not Active	Not Active	Not Active	Not Active	Not Active	–	–
CCn1cc(C(=O)O)c(=O)c2cc(F)c(N3CCN(C)CC3)cc21 [PEFLOXACIN]	Not Active	Not Active	Not Active	Not Active	Not Active	Not Active	Not Active	Not Active	Not Active	Not Active	–	–
CCCCOc1ccc(OCCCN2CCOCC2)cc1 [PRAMOXINE]	Not Active	Not Active	Not Active	Not Active	Not Active	Not Active	Not Active	Not Active	Not Active	Not Active	–	–
